Literature values in patent publication US12448600B2, “Extraction of antimethanogenic compounds” (priority 2023, dated 2025).
Like-named read-outs stand apart in the source and are kept apart here.

Tests used:
[1] = pure form
[2] = 20° C., cell prints mmHg under a kPa head

For O=[N+]([O-])OCCCO [3-NOP, 3-nitrooxypropanol], the “Reduction in CH4 production” value (CH4 production; cows, twice daily dosing, 80 mg per kg dry matter intake, 3 hours post-administration) is given as 29%, the “Reduction in methane emissions” value (CH4 production; single dose) is given as < 30% and the “Time the reduction in methane emissions is maintained” value (CH4 production; single dose) is given as 3 to 4 h.

For ClC(Cl)Br [Bromodichloromethane], the Vapor pressure ([1]; 20° C.) is listed as 6.6 kPa.

For BrC(Br)Br [Bromoform], the Vapor pressure ([1]; 20° C.) is listed as 0.67 kPa.

In the case of ClC(Cl)Cl [Chloroform], the Vapor pressure [1, 2] is listed as 212 mmHg.

For BrCBr [Dibromomethane], the Vapor pressure ([1]; 20° C.) is listed as 4.7 kPa.

For FC(F)F [Fluoroform], the Vapor pressure ([1]; 20° C.) is given as 4000 kPa.

For IC(I)I [Iodoform], the Vapor pressure [1, 2] is listed as 0.04 mmHg.

For CBr [Methyl bromide], the Vapor pressure [1, 2] is given as 1893 mmHg.

For CF [Methyl fluoride], the Vapor pressure ([1]; at 21° C.) is listed as 3300 at 21 °C kPa.

For CI [Methyl iodide], the Vapor pressure ([1]; 20° C.) is listed as 50 kPa.

In the case of ClC=C(Cl)Cl [Trichlorethylene], the Vapor pressure ([1]; 20° C.) is given as 7.8 kPa.
